Measurements as given in patent US20200268703A1, “MEDICINE FOR TREATING ADVANCED OR RECURRENT CANCER PATIENT BEING NON-RESPONSIVE OR NON-TOLERANT TO STANDARD CHEMOTHERAPY AND INCURABLE AND UNRESECTABLE” (HYOGO COLLEGE OF MEDICINE, priority 2017, published 2020).
Where “and” joins values, the source holds several entries; their conditions need not be identical. Equal entries are not always repeated.

Tested on: advanced or recurrent gastric cancer which is non-responsive or non-tolerant to standard chemotherapy and incurable and unresectable
Experiment: Clinical trial of propagermanium in patients with advanced or recurrent gastric cancer (OS, PFS, lung metastasis imaging)
Type: in vivo, human
Conditions: for OS / PFS: 30 mg orally per day
Method: 30 mg of propagermanium [trade name: SEROCION (registered trademark), produced by SANWA KAGAKU KENKYUSHO CO., LTD.] was administered orally in three divided doses per day after meals to 13 patient cases (P-1 to P-13) who were diagnosed as advanced or recurrent gastric cancer which is non-responsive or non-tolerant to standard chemotherapy [gastric cancer treatment guideline fourth edition (edited by Japan Gastric cancer Association, revised in May 2014)] and incurable and unresectable, and a clinical trial was conducted with overall survival (hereinafter also referred to as “OS”) and progression-free survival (hereinafter also referred to as “PFS”) as evaluation items. This clinical trial was conducted under an approval of Ethics Committee of Hyogo College of Medicine (No. 1911). The ECOG performance status (hereinafter also referred to as “PS”), the OS, and the PFS of 13 patient cases are shown in Table 1.
On the other hand, in Hyogo College of Medicine Hospital from 2009 to 2011, in 62 cases which were diagnosed as advanced gastric cancer which is non-responsive or non-tolerant to standard chemotherapy and incurable and unresectable and for which palliative care (Best Supportive Care; hereinafter “BSC”) to reduce pain was provided, the median of OS from the time when a doctor explained BSC to the patient was 22 days.
13 Patient cases in which the propagermanium was administered and 62 patient cases in which the BSC was provided were divided into two groups of (A) 0 and 1 and (B) 2 and 3 according to PS thereof. In the two groups, medians of the OS in the propagermanium administration examples and BSC examples were compared. As a result, in the patient groups whose PS was (A) 0 and 1, the median of OS in the BSC examples was 23.5 days, whereas the median of OS in the propagermanium administration examples was 163 days. The survival time was extended approximately 7 times compared to the BSC examples. […] Accordingly, it was confirmed that the survival days were extended compared to the BSC examples.
In 13 patient cases in which the propagermanium was administered, mean values of OS were compared according to the presence and absence of the peritoneal metastasis (Table 2 and FIG. 4). As a result, the mean value of OS of 8 patient cases with the peritoneal metastasis was 81.1 days, whereas the mean value of OS of 5 patient cases without the peritoneal metastasis was 164.7 days. […] In addition, 13 patient cases in which the propagermanium was administered were divided into two groups of (C) 0 and 1 and (D) 2 and 3 according to the PS thereof. In the two groups, mean values of the OS were compared according to the presence or absence of the peritoneal metastasis (Table 2 and FIG. 4). As a result, in the patient group whose PS was (C) 0 and 1, the mean value of OS of 4 cases with the peritoneal metastasis was 139 days, whereas the mean value of OS of 3 cases without the peritoneal metastasis was 273 days. […] On the other hand, in the patient group whose PS was (D) 2 and 3, the mean value of OS of 4 cases with the peritoneal metastasis was 37.8 days, whereas the mean value of OS of 2 cases without the peritoneal metastasis was 56.3 days.

For propagermanium, the “Median of PFS” value (13 patient cases) was 49 days, the “Median of OS” value (13 patient cases, BSC examples (62 cases) 22 days) was 73 days and the “Kaplan Meier survival curves of OS versus BSC (FIG. 1)” value (13 propagermanium cases versus 62 BSC cases) was “significant life prolongation effect”. For the same substance, the “Mean value of OS” value ((C) PS 0 and 1, with peritoneal metastasis, 4 cases) was 139 days and 139 (4) days, the “Mean value of OS” value ((C) PS 0 and 1, without peritoneal metastasis, 3 cases) was 273 days and 273 (3) days and the “Mean value of OS” value ((D) PS 2 and 3, with peritoneal metastasis, 4 cases) was 37.8 days and 37.8 (4) days. The “Mean value of OS” value ((D) PS 2 and 3, without peritoneal metastasis, 2 cases) was 56.3 days and 56.3 (2) days, the “OS without versus with peritoneal metastasis” value (shortened to “OS without versus”) (all 13 propagermanium patient cases) was “significant life prolongation effect” and the “Mean value of OS” value (all patients, with peritoneal metastasis, 8 cases) was 81.1 days and 81.1 (8) days. The “Mean value of OS” value (all patients, without peritoneal metastasis, 5 cases) was 164.7 days and 164.7 (5) days, the OS (patient P-1, PS 2) was 76 days and the PFS (patient P-1, PS 2) was 56 days. It also gave an OS (patient P-2, PS 3) of 34 days, a PFS (patient P-2, PS 3) of 3 days and an OS (patient P-3, PS 0) of 344 days. For the same substance, the PFS (patient P-3, PS 0) was 336 days, the OS (patient P-4, PS 2) was 72 days and the PFS (patient P-4, PS 2) was 28 days. The “Lesion site of lung (lung metastasis), imaging (FIG. 5)” value (patient P-5, 357th day after starting administration) was “scar was formed”, the PFS (patient P-5, PS 1) was 392 days and the “Lesion site of lung (lung metastasis), imaging (FIG. 5)” value (patient P-5, from the 35th day after starting administration) was “reduction was observed”. For the same substance, the OS (patient P-6, PS 3) was 36 days, the PFS (patient P-6, PS 3) was 22 days and the OS (patient P-7, PS 0) was 83 days. The PFS (patient P-7, PS 0) was 49 days, the OS (patient P-8, PS 1) was 73 days and the PFS (patient P-8, PS 1) was 73 days. The OS (patient P-9, PS 3) was 30 days, the PFS (patient P-9, PS 3) was 21 days and the OS (patient P-10, PS 2) was 11 days. For the same substance, the PFS (patient P-10, PS 2) was 7 days, the OS (patient P-11, PS 0) was 163 days and the PFS (patient P-11, PS 0) was 159 days. For the same substance, the OS (patient P-12, PS 1) was 181 days, the PFS (patient P-12, PS 1) was 178 days and the OS (patient P-13, PS 1) was 61 days. The PFS (patient P-13, PS 1) was 36 days, the “Kaplan Meier survival curve of OS versus BSC (FIG. 2)” value (patient group PS (A) 0 and 1) was “significant life prolongation effect” and the “Survival time extension compared to BSC examples” value (patient group PS (A) 0 and 1) was “approximately 7 times”. The “Median of OS” value (patient group PS (A) 0 and 1, BSC examples 23.5 days) was 163 days, the “Median of OS” value (patient group PS (B) 2 and 3, BSC examples 22 days) was 35 days and the “Kaplan Meier survival curve of OS versus BSC (FIG. 3)” value (patient group PS (B) 2 and 3, significant difference not confirmed) was “tendency to prolong life”. The “OS without versus” value (patient group PS (C) 0 and 1) was “significant life prolongation effect” and the “OS without versus” value (patient group PS (D) 2 and 3, significant difference not confirmed) was “tendency to prolong life”.
